Reference: patent US8497266B2, “3-(3-pyrimidin-2-ylbenzyl)-1,2,4-triazolo[4,3-b]pyridazine derivatives as MET kinase inhibitors” (Merck Patent GmbH, priority 2008, dated 2013)

Each compound was assayed against Met kinase (Homo sapiens, UniProt P08581) (assay: Met kinase inhibition (cell)).
Met kinase, sequence (P08581 25-1390): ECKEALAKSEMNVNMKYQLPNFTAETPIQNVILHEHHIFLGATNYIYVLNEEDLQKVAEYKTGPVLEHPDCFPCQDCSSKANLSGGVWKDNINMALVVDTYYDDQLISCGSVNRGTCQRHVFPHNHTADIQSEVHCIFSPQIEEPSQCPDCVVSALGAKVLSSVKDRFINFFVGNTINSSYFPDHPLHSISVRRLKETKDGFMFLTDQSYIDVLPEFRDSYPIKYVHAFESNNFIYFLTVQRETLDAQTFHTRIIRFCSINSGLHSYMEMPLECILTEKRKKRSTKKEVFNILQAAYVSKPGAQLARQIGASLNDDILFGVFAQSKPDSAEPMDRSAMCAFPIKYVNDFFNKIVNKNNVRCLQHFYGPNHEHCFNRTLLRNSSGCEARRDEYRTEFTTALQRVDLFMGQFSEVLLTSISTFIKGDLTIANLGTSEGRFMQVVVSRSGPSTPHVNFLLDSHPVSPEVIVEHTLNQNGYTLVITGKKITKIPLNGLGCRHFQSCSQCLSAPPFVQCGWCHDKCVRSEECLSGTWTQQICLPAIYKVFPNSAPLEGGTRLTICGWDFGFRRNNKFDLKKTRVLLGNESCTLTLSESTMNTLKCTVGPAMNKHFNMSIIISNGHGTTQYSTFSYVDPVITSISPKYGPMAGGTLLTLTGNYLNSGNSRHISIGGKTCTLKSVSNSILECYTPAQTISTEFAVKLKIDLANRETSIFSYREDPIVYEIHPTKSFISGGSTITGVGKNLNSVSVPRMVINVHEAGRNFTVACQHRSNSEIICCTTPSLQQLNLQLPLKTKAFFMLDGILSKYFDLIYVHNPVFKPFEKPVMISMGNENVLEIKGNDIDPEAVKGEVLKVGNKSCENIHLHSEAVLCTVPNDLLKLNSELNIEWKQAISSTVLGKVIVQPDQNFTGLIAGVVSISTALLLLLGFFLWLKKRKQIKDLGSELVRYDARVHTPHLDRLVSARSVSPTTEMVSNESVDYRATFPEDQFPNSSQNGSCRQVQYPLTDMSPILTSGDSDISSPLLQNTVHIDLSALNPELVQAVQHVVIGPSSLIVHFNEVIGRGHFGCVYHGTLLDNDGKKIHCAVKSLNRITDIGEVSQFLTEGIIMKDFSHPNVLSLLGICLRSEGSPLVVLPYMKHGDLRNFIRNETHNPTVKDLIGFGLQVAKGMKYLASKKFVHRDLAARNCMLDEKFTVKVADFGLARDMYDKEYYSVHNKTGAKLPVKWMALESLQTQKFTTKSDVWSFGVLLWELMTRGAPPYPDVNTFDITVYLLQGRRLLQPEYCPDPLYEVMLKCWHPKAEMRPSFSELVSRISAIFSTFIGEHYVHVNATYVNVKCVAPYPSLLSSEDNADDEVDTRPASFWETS
Type: cell-based
For `Cn1cc(-c2ccc3nnc(Cc4cccc(-c5ncc(-c6cnn(CCN7CCCC7)c6)cn5)c4)n3n2)cn1` [Compound A2, 6-(1-methyl-1H-pyrazol-4-yl)-3-(3-{5-[1-(2-pyrrolidin-1-yl-ethyl)-1H-pyrazol-4-yl]pyrimidin-2-yl}benzyl)-1,2,4-triazolo[4,3-b]pyridazine], the IC50 was 1 to 100 nM. `Cc1ccc2nnc(C(F)(F)c3cccc(-c4ncc(OCCN5CCOCC5)cn4)c3)n2n1` [Compound A28, 3-(difluoro-{3-[5-(2-morpholin-4-ylethoxy)pyrimidin-2-yl]-phenyl}methyl)-6-methyl-1,2,4-triazolo[4,3-b]pyridazine] showed an IC50 of 1 to 100 nM. `Cn1cc(-c2ccc3nnc(Cc4cccc(-c5ncc(O)cn5)c4)n3n2)cn1` [Compound A30, 2-{3-[6-(1-methyl-1H-pyrazol-4-yl)-1,2,4-triazolo[4,3-b]pyridazin-3-yl-methyl]phenyl}pyrimidin-5-ol] gave an IC50 of 100 to 10000 nM. For `COCCOc1cnc(-c2cccc(C(F)(F)c3nnc4ccc(-c5cnn(C)c5)nn34)c2)nc1` [Compound A31, 3-(difluoro-{3-[5-(2-methoxyethoxy)pyrimidin-2-yl]phenyl}methyl)-6-(1-methyl-1H-pyrazol-4-yl)-1,2,4-triazolo[4,3-b]pyridazine], the IC50 was 1 to 100 nM. In the case of `Cn1cc(-c2ccc3nnc(C(F)(F)c4cccc(-c5ncc(OCCO)cn5)c4)n3n2)cn1` [Compound A32, 2-[2-(3-{difluoro-[6-(1-methyl-1H-pyrazol-4-yl)-1,2,4-triazolo[4,3-b]pyridazin-3-yl]methyl}phenyl)pyrimidin-5-yloxy]ethanol], the IC50 is reported as 1 to 100 nM. For `COCCOc1cnc(-c2cccc(Cc3nnc4ccc(-c5cnn(C)c5)nn34)c2)nc1` [Compound A33, 3-{3-[5-(2-methoxyethoxy)pyrimidin-2-yl]benzyl}-6-(1-methyl-1H-pyrazol-4-yl)-1,2,4-triazolo[4,3-b]pyridazine], the IC50 was 100 to 10000 nM. For `Cn1cc(-c2ccc3nnc(Cc4cccc(-c5ncc(OCCO)cn5)c4)n3n2)cn1` [Compound A34, 2-(2-{3-[6-(1-methyl-1H-pyrazol-4-yl)-1,2,4-triazolo[4,3-b]pyridazin-3-ylmethyl]-phenyl}pyrimidin-5-yloxy)ethanol], the IC50 was 1 to 100 nM. `COc1cnc(-c2cccc(Cc3nnc4ccc(-c5cnn(C)c5)nn34)c2)nc1` [Compound A35, 3-[3-(5-methoxypyrimidin-2-yl)benzyl]-6-(1-methyl-1H-pyrazol-4-yl)-1,2,4-triazolo[4,3-b]pyridazine] was tested, and the IC50 was 1 to 100 nM. For `COCCCOc1cnc(-c2cccc(Cc3nnc4ccc(-c5cnn(C)c5)nn34)c2)nc1` [Compound A36, 3-{3-[5-(3-methoxypropoxy)pyrimidin-2-yl]benzyl}-6-(1-methyl-1H-pyrazol-4-yl)-1,2,4-triazolo[4,3-b]pyridazine], the IC50 was 1 to 100 nM. `CN1CCN(CCOc2cnc(-c3cccc(Cc4nnc5ccc(-c6cnn(C)c6)nn45)c3)nc2)CC1` [Compound A37, 3-(3-{5-[2-(4-methylpiperazin-1-yl)ethoxy]pyrimidin-2-yl}benzyl)-6-(1-methyl-1H-pyrazol-4-yl)-1,2,4-triazolo[4,3-b]pyridazine] showed an IC50 of 1 to 100 nM. `CN1CCC(COc2cnc(-c3cccc(C(F)(F)c4nnc5ccc(-c6cnn(C)c6)nn45)c3)nc2)CC1` [Compound A42, 3-(difluoro-{3-[5-(1-methylpiperidin-4-ylmethoxy)pyrimidin-2-yl]-phenyl}methyl)-6-(1-methyl-1H-pyrazol-4-yl)-1,2,4-triazolo[4,3-b]pyridazine] was tested, and the IC50 was 1 to 100 nM. `Cc1cnc(-c2cccc(Cc3nnc4ccc(-c5cnn(CCO)c5)nn34)c2)nc1` [Compound A44, 2-(4-{3-[3-(5-methyl-pyrimidin-2-yl)benzyl]-1,2,4-triazolo[4,3-b]pyridazin-6-yl}pyrazol-1-yl)ethanol] was tested, and the IC50 was 1 to 100 nM.
